# Reference: PubChem BioAssay AID977614 (Broad Institute, 2014)
# Active and inactive are the calls of the source.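 How the source made its calls: active means parasite count per well reduced by over 3 SD from the mean, with host cell number above 80% of untreated; inactive means the rest.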
# System: L. donovani amastigotes in THP-1 macrophages, DAPI imaging, 72 h
# Assay: L. donovani intracellular amastigote growth inhibitors, imaging, THP-1 host macrophages, single concentration (AID 977614);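 further: signal is the parasite per host cell ratio from DAPI stained kinetoplasts and nuclei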
row,SMILES,AC50
1,CCN(C[C@@H]1[C@H](c2ccccc2)[C@H](CO)N1C(=O)COC)S(C)(=O)=O,> 10 µM (inactive)
2,O=C(NC[C@@H]1[C@@H](c2ccccc2)[C@@H](CO)N1C(=O)C1CCC1)NC1CCCC1,> 10 µM (inactive)
3,COCC(=O)N1[C@H](CNC(=O)c2ccccn2)[C@@H](c2ccccc2)[C@@H]1CO,> 10 µM (inactive)
4,O=C(Cc1cccnc1)N1[C@@H](CO)[C@@H](c2ccccc2)[C@@H]1CNCC1CCC1,> 10 µM (inactive)
5,CN1C[C@H]2[C@@H](c3ccccc31)[C@@H](CO)N2C(=O)C1CCOCC1,> 10 µM (inactive)
6,COc1ccccc1NC(=O)N1C[C@@H]2[C@H](c3ccccc31)[C@H](CO)N2Cc1ccc2c(c1)OCO2,> 10 µM (inactive)
7,CCC(=O)NC[C@H]1[C@@H](c2ccc(-c3ccc(C#N)cc3)cc2)[C@@H](CO)N1CCC(F)(F)F,> 10 µM (inactive)
8,O=C(Cc1ccccc1)N1C[C@H]2[C@@H](c3ccccc31)[C@@H](CO)N2S(=O)(=O)c1ccccc1,> 10 µM (inactive)
9,Cc1noc(C)c1NC(=O)N(C)C[C@H]1OCc2cn(nn2)CCCC(=O)N([C@H](C)CO)C[C@H]1C,> 10 µM (inactive)
10,CC(C)NC[C@@H]1[C@H](c2ccc(C3=CCCCC3)cc2)[C@H](CO)N1S(C)(=O)=O,> 10 µM (inactive)
11,COc1ccc(C(=O)N2C[C@@H]3[C@H](c4ccccc42)[C@@H](CO)N3C(=O)NC(C)C)cc1,> 10 µM (inactive)
12,CN1C[C@H]2[C@@H](c3ccccc31)[C@@H](CO)N2Cc1ccccc1Cl,> 10 µM (inactive)
13,CCC(=O)N1[C@H](CO)[C@H](c2ccc(C#CC(C)(C)O)cc2)[C@@H]1CN(C)C(C)=O,> 10 µM (inactive)
14,CCCN1[C@H](CO)[C@H](c2ccc(C3=CCCC3)cc2)[C@H]1CNC(=O)NC(C)C,> 10 µM (inactive)
15,COCC(=O)N1C[C@H]2[C@@H](c3ccccc31)[C@H](CO)N2C(=O)c1ccccc1F,> 10 µM (inactive)
16,C[C@H](CO)N1C[C@H](C)[C@H](CN(C)C(=O)CCC(F)(F)F)OCc2cnnn2CCCC1=O,> 10 µM (inactive)
17,CCC(=O)NC[C@H]1N[C@H](CO)[C@@H]1c1ccc(-c2cccnc2)cc1,> 10 µM (inactive)
18,CCCNC(=O)N1[C@H](CO)[C@@H]2c3ccccc3N(C(=O)Nc3cccc(Cl)c3)C[C@@H]21,> 10 µM (inactive)
19,CCC(=O)N(C)C[C@H]1[C@@H](c2ccc(-c3cccc(F)c3)cc2)[C@@H](CO)N1C(C)=O,> 10 µM (inactive)
20,Cc1cccc(S(=O)(=O)N2C[C@H]3[C@@H](c4ccccc42)[C@H](CO)N3Cc2ccc3c(c2)OCO3)c1,> 10 µM (inactive)
21,O=C(C1CCC1)N1C[C@@H]2[C@H](c3ccccc31)[C@@H](CO)N2C(=O)Nc1cccc(F)c1,> 10 µM (inactive)
22,C[C@H]1CN([C@@H](C)CO)C(=O)CCCn2nncc2CO[C@@H]1CN(C)S(=O)(=O)c1ccccc1C#N,> 10 µM (inactive)
23,CCS(=O)(=O)N(C)C[C@@H]1N[C@H](CO)[C@@H]1c1ccc(C#CC(C)C)cc1,> 10 µM (inactive)
24,CCC(=O)N1[C@H](CO)[C@@H]2c3ccccc3N(C(=O)Nc3ccc(Cl)cc3)C[C@@H]21,> 10 µM (inactive)
25,C[C@@H]1CN([C@H](C)CO)C(=O)CCCn2nncc2CO[C@@H]1CN(C)Cc1cccc(C(F)(F)F)c1,> 10 µM (inactive)
26,CN(C)CC(=O)N1C[C@H]2[C@@H](c3ccccc31)[C@@H](CO)N2C(=O)c1ccccn1,> 10 µM (inactive)

row,SMILES,AC50
1,CCC(=O)N1[C@H](CO)[C@H](c2ccc(C#CC3CCCCC3)cc2)[C@@H]1CNC(C)C,> 10 µM (inactive)
2,CCS(=O)(=O)N1[C@H](CO)[C@H](c2ccccc2)[C@@H]1CN(C)Cc1ccccn1,> 10 µM (inactive)
3,O=C(Cc1cccnc1)N1[C@H](CNCC2CCC2)[C@H](c2ccccc2)[C@@H]1CO,> 10 µM (inactive)
4,COCC(=O)N(C[C@@H]1[C@@H](c2ccccc2)[C@H](CO)N1C(=O)NC(C)C)C(C)C,> 10 µM (inactive)
5,CCNC[C@@H]1[C@H](c2ccccc2)[C@H](CO)N1C(=O)Cc1ccccn1,> 10 µM (inactive)
6,CN1[C@H](CO)[C@@H]2c3ccccc3N(C(=O)Nc3cc(F)ccc3F)C[C@@H]21,> 10 µM (inactive)
7,C[C@H](CO)N1C[C@H](C)[C@@H](CN(C)C(=O)Nc2ccc3c(c2)OCO3)OCc2cn(nn2)CCCC1=O,> 10 µM (inactive)
8,COCC(=O)N1[C@H](CO)[C@@H]2c3ccccc3NC[C@@H]21,> 10 µM (inactive)
9,C/C=C/c1ccc([C@@H]2[C@@H](CN(C)C(=O)CC3CC3)N(C(=O)C3CC3)[C@H]2CO)cc1,> 10 µM (inactive)
10,C[C@H](CO)N1C[C@H](C)[C@@H](CN(C)C(=O)c2ccc3ccn(C)c3c2)OCc2cnnn2CCCC1=O,> 10 µM (inactive)
11,COCC(=O)N1[C@@H]2CN(C(=O)Nc3ccccc3Cl)c3ccccc3[C@@H]2[C@@H]1CO,> 10 µM (inactive)
12,C[C@H](CO)N1C[C@H](C)[C@H](CN(C)C(=O)Nc2ccccc2C(F)(F)F)OCc2cnnn2CCCC1=O,> 10 µM (inactive)
13,O=C(CC(F)(F)F)N1C[C@H]2[C@@H](c3ccccc31)[C@H](CO)N2Cc1cccnc1,> 10 µM (inactive)
14,O=C(CN1CCOCC1)N1[C@@H](CO)[C@@H]2c3ccccc3NC[C@@H]21,> 10 µM (inactive)
15,Cc1cccc(S(=O)(=O)N2C[C@@H]3[C@H](c4ccccc42)[C@@H](CO)N3CC2CCCC2)c1,> 10 µM (inactive)
16,CCC(=O)N1[C@H](CO)[C@H](c2ccc(-c3cncnc3)cc2)[C@@H]1CN(C)C(C)=O,> 10 µM (inactive)
17,CCN(C[C@H]1[C@H](c2ccc(-c3cccnc3)cc2)[C@H](CO)N1C(C)=O)C(C)=O,> 10 µM (inactive)
18,O=C(c1ccc2c(c1)OCO2)N1C[C@H]2[C@@H](c3ccccc31)[C@@H](CO)N2Cc1cccnc1,> 10 µM (inactive)
19,O=C(NC[C@H]1[C@H](c2ccccc2)[C@@H](CO)N1Cc1cccnc1)c1ccccn1,> 10 µM (inactive)
20,CC(C)NC(=O)N1[C@H](CO)[C@@H]2c3ccccc3N(C)C[C@@H]21,> 10 µM (inactive)
21,CC(=O)N1[C@H](CO)[C@@H](c2ccccc2)[C@@H]1CNC(=O)CN1CCOCC1,> 10 µM (inactive)
22,CCC(=O)N1[C@H](CO)[C@@H](c2ccccc2)[C@@H]1CN(CC)C(=O)c1cccc(F)c1,> 10 µM (inactive)
23,COc1ccc(NC(=O)N(C)C[C@H]2OCc3cnnn3CCCC(=O)N([C@H](C)CO)C[C@H]2C)c(OC)c1,> 10 µM (inactive)
24,C[C@@H]1CN([C@@H](C)CO)C(=O)CCCn2nncc2CO[C@@H]1CN(C)Cc1ccccc1C(=O)O,> 10 µM (inactive)
25,O=C(Nc1ccccc1Cl)N1C[C@H]2[C@@H](c3ccccc31)[C@@H](CO)N2C(=O)c1cccnc1,> 10 µM (inactive)
26,C[C@H](CO)N1C[C@H](C)[C@@H](CN(C)C(=O)Oc2ccc3ccccc3c2)OCc2cn(nn2)CCCC1=O,> 10 µM (inactive)

row,SMILES,AC50
1,C[C@H](CO)N1C[C@H](C)[C@@H](CN(C)S(=O)(=O)c2ccc3c(c2)OCCCO3)OCc2cnnn2CCCC1=O,> 10 µM (inactive)
2,C[C@@H]1CN([C@@H](C)CO)C(=O)CCCn2cc(nn2)CO[C@@H]1CN(C)C(=O)CCC(F)(F)F,> 10 µM (inactive)
3,CCCNC(=O)N1[C@H](CO)[C@H](c2ccc(-c3ccc(C#N)cc3)cc2)[C@@H]1CNC,> 10 µM (inactive)
4,CNC[C@@H]1OCc2cnnn2CCCC(=O)N([C@@H](C)CO)C[C@H]1C,> 10 µM (inactive)
5,COc1ccccc1CN1[C@@H]2CN(C(=O)C3CCOCC3)c3ccccc3[C@@H]2[C@@H]1CO,> 10 µM (inactive)
6,CCc1csc(N2[C@H](CO)[C@H](c3ccccc3)[C@@H]2CN(C)C(=O)C2CCC2)n1,> 10 µM (inactive)
7,C[C@@H]1CN([C@H](C)CO)C(=O)CCCn2nncc2CO[C@H]1CN(C)S(=O)(=O)c1cn(C)cn1,> 10 µM (inactive)
8,OC[C@H]1[C@@H]2c3ccccc3NC[C@@H]2N1CC1CCOCC1,> 10 µM (inactive)
9,C[C@@H]1CN([C@@H](C)CO)C(=O)CCCn2nncc2CO[C@H]1CN(C)CC1CCCCC1,> 10 µM (inactive)
10,C[C@H]1CN([C@@H](C)CO)C(=O)CCCn2nncc2CO[C@@H]1CN(C)Cc1ccc2c(c1)OCCN2C,> 10 µM (inactive)
11,CCC(=O)N1[C@H](CN(CC)C(=O)c2cccc(F)c2)[C@H](c2ccccc2)[C@@H]1CO,> 10 µM (inactive)
12,COc1ccccc1NC(=O)N1C[C@H]2[C@@H](c3ccccc31)[C@@H](CO)N2C(=O)C1CCCC1,> 10 µM (inactive)
13,O=S(=O)(c1ccc(F)cc1)N1C[C@H]2[C@@H](c3ccccc31)[C@H](CO)N2Cc1ccccc1Cl,> 10 µM (inactive)
14,COc1ccccc1NC(=O)N1C[C@@H]2[C@H](c3ccccc31)[C@H](CO)N2CC1CCOCC1,> 10 µM (inactive)
15,COc1cccc(C(=O)N2C[C@@H]3[C@H](c4ccccc42)[C@H](CO)N3C(=O)c2cccc(F)c2)c1,> 10 µM (inactive)
16,COCCN(C[C@@H]1[C@@H](c2ccccc2)[C@@H](CO)N1C(C)=O)C(=O)c1cccnc1,> 10 µM (inactive)
17,COc1ccc(C(=O)N2C[C@@H]3[C@H](c4ccccc42)[C@@H](CO)N3Cc2ccccc2Cl)cc1,> 10 µM (inactive)
18,O=C(c1ccccc1F)N1C[C@@H]2[C@H](c3ccccc31)[C@H](CO)N2Cc1ccc2c(c1)OCO2,> 10 µM (inactive)
19,COc1ccccc1C(=O)N1C[C@@H]2[C@H](c3ccccc31)[C@H](CO)N2CC1CCCC1,> 10 µM (inactive)
20,C[C@@H]1CN([C@@H](C)CO)C(=O)CCCn2cc(nn2)CO[C@@H]1CN(C)S(=O)(=O)c1cn(C)cn1,> 10 µM (inactive)
21,COCCNC[C@H]1[C@@H](c2ccccc2)[C@@H](CO)N1c1nc(C)c(C)s1,> 10 µM (inactive)
22,O=C(c1ccccn1)N1C[C@H]2[C@@H](c3ccccc31)[C@H](CO)N2C(=O)C1CCCCC1,> 10 µM (inactive)
23,CC(C)N(C[C@@H]1[C@H](c2ccccc2)[C@@H](CO)N1S(C)(=O)=O)C(=O)CN(C)C,> 10 µM (inactive)
24,COc1ccc(CN2[C@@H]3CN(C(=O)NC(C)C)c4ccccc4[C@@H]3[C@@H]2CO)cc1,> 10 µM (inactive)
25,C[C@H]1CN([C@@H](C)CO)C(=O)CCCn2cc(nn2)CO[C@H]1CN(C)C(=O)Nc1ccc2c(c1)OCO2,> 10 µM (inactive)
